The values that follow come from ChEMBL document CHEMBL1128014, “Synthesis and biological activity of a potent antiplatelet 7-aminofurochromone” (Bioorg Med Chem Lett, 1994).

Bounds are passed on as bounds.

For assay [1], the species on record is Homo sapiens. The assay can be described thus: Compound was tested for its ability to inhibit ADP-induced human platelet aggregation. Type of assay: functional.
Assay [2] is filed under the species Homo sapiens. The assay can be described thus: Potency to inhibit ADP-induced human platelet aggregation was determined relative to compound 1(5-Methyl-3-morpholin-4-yl-6-(2-naphthalene-1-one). It counts as functional.
The species named for assay [3] is Homo sapiens. The assay can be described thus: Effect on PGI2-stimulated cAMP in washed human platelets at a concentration of 0.3 uM +1 ng/mL of PGI2; pmol/5E8 platelets. It counts as functional.
Assay [4] concerns Canis familiaris. The assay can be described thus: Time interval between start of drug treatment and first change in CFR pattern of blood flow at an iv dose of 10 ug/kg/60 min in a canine model. It counts as functional, Canis lupus familiaris.
For assay [5], the species on record is Homo sapiens. The assay can be described thus: Effect on aggregation of thrombin-stimulated washed human platelets at a concentration of 0.1 uM. It counts as functional.
The subject of assay [6] is Canis familiaris. The assay can be described thus: Time interval between start of drug treatment and first change in CFR pattern of blood flow at an iv dose of 100 ug/kg plus a constant infusion of 10 ug/kg/min. Type of assay: functional, Canis lupus familiaris.
In assay [7] the test system is Canis familiaris. The assay can be described thus: Effect on mean arterial pressure was determined at an iv dose of 3 ug/kg/60 min in canine model. It counts as functional, Canis lupus familiaris, Artery.
For assay [8], the system named is Canis familiaris. The experiment in a line: Time interval between end of drug treatment and restoration of CFR pattern of blood flow at an iv dose of 100 ug/kg plus a constant infusion of 10 ug/kg/min in canine model. Type of assay: functional, Canis lupus familiaris.
Assay [9] is filed under the species Homo sapiens. The experiment in a line: Effect on cAMP levels in washed platelets at a concentration of 0.3 uM; pmol/5E8 platelets. It counts as functional.
In assay [10] the test system is Canis familiaris. The assay can be described thus: Time interval between end of drug treatment and restoration of CFR pattern of blood flow at an iv dose of 30 ug/kg plus a constant infusion of 3 ug/kg/min in canine model. Type of assay: functional, Canis lupus familiaris.
Assay [11] deals with Canis familiaris. The assay can be described thus: Effect on mean arterial pressure was determined at an iv dose of 100 ug/kg plus a constant infusion of 10 ug/kg/min in canine model. Type of assay: functional, Canis lupus familiaris, Artery.
For assay [12], the system named is Canis familiaris. The assay can be described thus: Time interval between start of drug treatment and first change in CFR pattern of blood flow at an iv dose of 30 ug/kg plus a constant infusion of 3 ug/kg/min. Type of assay: functional, Canis lupus familiaris.
Assay [13] deals with Canis familiaris. The experiment in a line: Effect on heart rate was determined at an iv dose of 3 ug/kg/60 min in canine model. It counts as functional, Canis lupus familiaris.
The test system of assay [14] is Canis familiaris. The experiment in a line: Effect on mean arterial pressure was determined at an iv dose of 10 ug/kg/60 min in a canine model. It counts as functional, Canis lupus familiaris, Artery.
Assay [15] relates to Canis familiaris. The experiment in a line: Effect on Cyclical Flow Reductions induced by intracoronary platelet aggregation in stenosed canine coronary arteries at an iv dose of 100 ug/kg plus a constant infusion of 10 ug/kg/min in canine model. Type of assay: functional, Canis lupus familiaris.
Assay [16] deals with Canis familiaris. The assay can be described thus: Effect on Cyclical Flow Reductions induced by intracoronary platelet aggregation in stenosed canine coronary arteries at an iv dose of 30 ug/kg plus a constant infusion of 3 ug/kg/min in canine model. Type of assay: functional, Canis lupus familiaris.
In assay [17] the test system is Canis familiaris. The assay can be described thus: Effect on mean arterial pressure was determined at an iv dose of 10 ug/kg plus a constant infusion of 1 ug/kg/min in canine model. Type of assay: functional, Canis lupus familiaris, Artery.
The test system of assay [18] is Canis familiaris. The experiment in a line: Time interval between end of drug treatment and restoration of CFR pattern of blood flow at an iv dose of 10 ug/kg/60 min in a canine model. Type of assay: functional, Canis lupus familiaris.
The species entered for assay [19] is Homo sapiens. The assay can be described thus: Effect on cAMP levels in washed platelets at a concentration of 0.1 uM; pmol/5E8 platelets. Type of assay: functional. On the technique in general: cAMP levels reflect the balance of adenylyl cyclase and phosphodiesterase activity.
Assay [20] concerns Canis familiaris. The experiment in a line: Time interval between end of drug treatment and restoration of CFR pattern of blood flow at an iv dose of 10 ug/kg plus a constant infusion of 1 ug/kg/min in canine model. Type of assay: functional, Canis lupus familiaris.
Assay [21] concerns Canis familiaris. The assay can be described thus: Effect on heart rate was determined at an iv dose of 100 ug/kg plus a constant infusion of 10 ug/kg/min in a canine model. It counts as functional, Canis lupus familiaris.
Assay [22] concerns Canis familiaris. The assay can be described thus: Effect on Cyclical Flow Reductions induced by intracoronary platelet aggregation in stenosed canine coronary arteries at an iv dose of 10 ug/kg plus a constant infusion of 1 ug/kg/min in canine model. It counts as functional, Canis lupus familiaris.
The subject of assay [23] is Canis familiaris. The experiment in a line: Effect on heart rate was determined at an iv dose of 30 ug/kg plus a constant infusion of 3 ug/kg/min in a canine model. It counts as functional, Canis lupus familiaris.
For assay [24], the species on record is Homo sapiens. The experiment in a line: Effect on aggregation of thrombin-stimulated washed human platelets at a concentration of 1 uM. Type of assay: functional.
Assay [25] concerns Canis familiaris. The assay can be described thus: Effect on heart rate was determined at an iv dose of 10 ug/kg plus a constant infusion of 1 ug/kg/min in a canine model. It counts as functional, Canis lupus familiaris.
Assay [26] concerns Canis familiaris. The assay can be described thus: Effect on Cyclical Flow Reductions induced by intracoronary platelet aggregation in stenosed canine coronary arteries at an iv dose of 3 ug/kg/60 min in canine model. Type of assay: functional, Canis lupus familiaris.
The subject of assay [27] is Canis familiaris. The experiment in a line: Effect on mean arterial pressure was determined at an iv dose of 30 ug/kg plus a constant infusion of 3 ug/kg/min in canine model. It counts as functional, Canis lupus familiaris, Artery.
Assay [28] concerns Canis familiaris. The assay can be described thus: Time interval between end of drug treatment and restoration of CFR pattern of blood flow at an iv dose of 3 ug/kg/60 min in canine model. It counts as functional, Canis lupus familiaris.
The species named for assay [29] is Homo sapiens. The experiment in a line: Effect on aggregation of thrombin-stimulated washed human platelets at a concentration of 0.3 uM. Type of assay: functional.
Assay [30] has as its system Canis familiaris. The assay can be described thus: Effect on Cyclical Flow Reductions induced by intracoronary platelet aggregation in stenosed canine coronary arteries at an iv dose of 10 ug/kg/60 min in a canine model. It counts as functional, Canis lupus familiaris.
The subject of assay [31] is Canis familiaris. The experiment in a line: Effect on heart rate was determined at an iv dose of 10 ug/kg/60 min in a canine model. Type of assay: functional, Canis lupus familiaris.

By IC50 is commonly meant the concentration that inhibits the measured activity by half. Low values mean greater potency, high ones weaker potency. In the assay listed under Homo sapiens [1], `Cc1c2oc(CN3CCN(C)CC3)cc2cc2c(=O)cc(N3CCOCC3)oc12` came in with a 50% inhibitory concentration (IC50) of 9.1 µM. Also, the Relative potency in the assay listed under Homo sapiens [2] is 0.9.
In the assay filed under Homo sapiens [1], `Cc1c2c(cc3c(=O)cc(N4CCOCC4)oc13)CC(CN1CCCCC1)O2` (stereo not given) returned an IC50 of 6.2 µM. Also, the Relative potency in the assay filed under Homo sapiens [2] came out at 0.5.
Regarding `Cc1c2oc(CN3CCSCC3)cc2cc2c(=O)cc(N3CCOCC3)oc12`, the Activity in the assay listed under Homo sapiens [3] is given as 163.1; in the assay filed under Homo sapiens [5], 25.7; in the assay filed under Homo sapiens [9], 36.1; in the assay filed under Homo sapiens [19], 13.2; in the assay filed under Homo sapiens [24], 25.7. Besides, the Onset time is reported as 8 min with Canis familiaris [4], 1 min in the assay on Canis familiaris [6] and 1 min in the assay on Canis familiaris [12]. Also, the Aggregation was 14% in the assay filed under Homo sapiens [5], 0% in the assay filed under Homo sapiens [24] and 0% in the assay listed under Homo sapiens [29]. Moreover, the “Mean arterial blood pressure” value is 93% in the assay on Canis familiaris [7]; 74% in the assay with Canis familiaris [11]; 86% in the assay with Canis familiaris [14]; 99% with Canis familiaris [17]; 88% in the assay with Canis familiaris [27]. For the same compound, the Offset time is listed as greater than 60 min with Canis familiaris [8]; 34 min in the assay on Canis familiaris [10]; 36 min in the assay on Canis familiaris [18]; 3 min in the assay on Canis familiaris [20]; 27 min in the assay with Canis familiaris [28]. This compound showed an IC50 in the assay filed under Homo sapiens [1] of 0.35 µM. Besides, the Heart rate in the assay on Canis familiaris [13] is reported as 104%; in the assay with Canis familiaris [21], 116%; in the assay on Canis familiaris [23], 112%; in the assay on Canis familiaris [25] it was 106%; with Canis familiaris [31] it was 116%. Also, the CFR rating was 3 in the assay on Canis familiaris [15]; 2 in the assay on Canis familiaris [16]; 1 in the assay on Canis familiaris [22]; 3 in the assay with Canis familiaris [26]; 3 with Canis familiaris [30]. In addition, the Relative potency in the assay listed under Homo sapiens [2] is recorded as 4.5.
Compound `Cc1c2oc(CN3CCCC3)cc2cc2c(=O)cc(N3CCOCC3)oc12` came in with an IC50 in the assay listed under Homo sapiens [1] of 15.4 µM. The same compound had a Relative potency in the assay filed under Homo sapiens [2] of 0.5.
For the compound `Cc1c(OCCN2CCN(C)CC2)ccc2c(=O)cc(N3CCOCC3)oc12`, in the assay listed under Homo sapiens [1], the IC50 stood at 8.6 µM. Moreover, the Relative potency in the assay listed under Homo sapiens [2] is 1.
With `Cc1c2c(cc3c(=O)cc(N4CCOCC4)oc13)CC(CN1CCN(C)CC1)O2` (stereo not given), inhibition in the assay listed under Homo sapiens [1] was half-maximal at 5.6 µM (IC50). Moreover, the Relative potency in the assay listed under Homo sapiens [2] worked out at 0.5.
Compound `Cc1c2c(cc3c(=O)cc(N4CCOCC4)oc13)CC(CN1CCSCC1)O2` (stereo not given) registered an IC50 in the assay filed under Homo sapiens [1] of 3.6 µM. In addition, the Relative potency in the assay listed under Homo sapiens [2] came out at 2.4.
